Assay type in all cases: in vivo
For assay [1], the system named is sandbur (southern sandbur, Cenchrus echinatus). Put plainly: Test F pre-/postemergence: sandbur. An excerpt:
(§1) Seeds of plant species selected from corn (Zea mays), soybean (Glycine max), velvetleaf (Abutilon theophrasti), lambsquarters (Chenopodium album), poinsettia, wild (wild poinsettia, Euphorbia heterophylla), pigweed, palmer (palmer pigweed, Amaranthus palmeri), waterhemp (common waterhemp, Amaranthus rudis), surinam grass (Brachiaria decumbens), crabgrass, Brazil (Brazilian crabgrass, Digitaria horizontalis), panicum, fall (fall panicum Panicum dichotomiflorum), crabgrass, large (large crabgrass, Digitaria sanguinalis), foxtail, giant (giant foxtail, Setaria faberii), foxtail, green (green foxtail Setaria viridis), goosegrass (Eleusine indica), ragweed (common ragweed, Ambrosia elatior), barnyardgrass (Echinochloa crus-galli), sandbur (southern sandbur, Cenchrus echinatus), arrowleaf sida (Sida rhombifolia), ryegrass, Italian (Italian ryegrass, Lolium multiflorum), dayflower, VA (Virginia (VA) dayflower, Commelina virginica), field bindweed (Convolvulus arvensis), cocklebur (common cocklebur, Xanthium strumarium), morningglory (Ipomoea coccinea), nightshade (eastern black nightshade, Solanum ptycanthum), kochia (Kochia scoparia), nutsedge, yellow (yellow nutsedge, Cyperus esculentus), johnsongrass (Sorghum halepense), smartweed (ladysthumb smartweed, Polygonum persicaria), and beggarticks (hairy beggarticks, Bidens pilosa), were planted into a silt loam soil and treated preemergence with test chemicals formulated in a non-phytotoxic solvent mixture which included a surfactant. At the same time, plants selected from these crop and weed species and also pigweed (Amaranthus retroflexus), waterhemp_RES1 (ALS/Triazine resistant common waterhemp, Amaranthus rudis) and waterhemp_RES2 (ALS/HPPD resistant common waterhemp, Amaranthus rudis) were planted in pots containing a planting medium comprising spaghnum peat moss, vermiculite, wetting agent and starter nutrients treated with postemergence applications of some of the test chemicals formulated in the same manner. Plants ranged in height from 2 to 18 cm for postemergence treatments (1- to 4-leaf stage).
(§2) Treated plants and controls were maintained in a greenhouse for 14 to 21 days, after which time all species were compared to controls and visually evaluated. Plant response ratings, summarized in Table E, are based on a scale of 0 to 100 where 0 is no effect and 100 is complete control. A dash (-) response means no test result.

The test system of assay [2] is foxtail, green (green foxtail Setaria viridis). Description: Test F pre-/postemergence: foxtail, green. To be noted: Preemergence.
Excerpt: as §1, §2

Assay [3] relates to canarygrass (Phalaris minor). Description: Test D pre-/postemergence: canarygrass. The source says:
(§3) Seeds of plant species selected from bluegrass (annual bluegrass, Poa annua), blackgrass (Alopecurus myosuroides), canarygrass (Phalaris minor), chickweed (common chickweed, Stellaria media), galium (catchweed bedstraw, Galium aparine), bromegrass, downy (downy bromegrass, Bromus tectorum), field poppy (Papaver rhoeas), field violet (Viola arvensis), foxtail, green (green foxtail, Setaria viridis), deadnettle (henbit deadnettle, Lamium amplexicaule), ryegrass, Italian (Italian ryegrass, Lolium multiflorum), kochia (Kochia scoparia), lambsquarters (Chenopodium album), oilseed rape (Brassica napus), pigweed (Amaranthus retroflexus), Russian thistle (Salsola iberica), chamomile (scentless chamomile, Matricaria inodora), speedwell (bird's-eye speedwell, Veronica persica), barley, spring (spring barley, Hordeum vulgare), wheat, spring (spring wheat, Triticum aestivum), buckwheat, wild (wild buckwheat, Polygonum convolvulus), mustard, wild (wild mustard, Sinapis arvensis), oat, wild (wild oat, Avena fatua), radish, wild (wild radish, Raphanus raphanistrum), windgrass (Apera spica-venti), barley, winter (winter barley, Hordeum vulgare), and wheat, winter (winter wheat, Triticum aestivum) were planted into a silt loam soil and treated preemergence with test chemicals formulated in a non-phytotoxic solvent mixture which included a surfactant. At the same time, these same crop and weed species were planted in pots containing the planting medium comprising spaghnum peat moss, vermiculite, wetting agent and starter nutrients and treated with postemergence applications of the test chemicals formulated in the same manner. Plants ranged in height from 2 to 18 cm (1- to 4-leaf stage).
(§4) Treated plants and controls were maintained in a controlled growth environment for 14 to 21 days after which time all species were compared to controls and visually evaluated. Plant response ratings, summarized in Table D, are based on a scale of 0 to 100 where 0 is no effect and 100 is complete control. A dash (-) response means no test result.

Assay [4] deals with ryegrass, Italian (Italian ryegrass, Lolium multiflorum). Description: Test D pre-/postemergence: ryegrass, Italian.
Excerpt: as §3, §4

Setting [5] is: Preemergence, 16 g ai/ha, scale 0 to 100, 0 no effect, 100 complete control.
Setting [6] is: Preemergence, 31 g ai/ha, scale 0 to 100, 0 no effect, 100 complete control.
[7] abbreviates: Preemergence, 125 g ai/ha, scale 0 to 100.
[8] abbreviates: Preemergence, 250 g ai/ha, scale 0 to 100.
[9] abbreviates: 16 g ai/ha, scale 0 to 100, 0 no effect, 100 complete control.
Setting [10] is: 31 g ai/ha, scale 0 to 100, 0 no effect, 100 complete control.
Where [11] appears, read: Postemergence, 31 g ai/ha, scale 0 to 100 (0 no effect, 100 complete control).
The mark [12] stands for this setting: Postemergence, 62 g ai/ha, scale 0 to 100 (0 no effect, 100 complete control).
[13] abbreviates: Postemergence, 125 g ai/ha, scale 0 to 100, 0 no effect, 100 complete control.
Where [14] appears, read: Postemergence, 250 g ai/ha, scale 0 to 100 (0 no effect, 100 complete control).
Where [15] appears, read: Postemergence, 16 g ai/ha, scale 0 to 100.
[16] abbreviates: Preemergence, 62 g ai/ha, scale 0 to 100.
[17] abbreviates: Postemergence, 31 g ai/ha, scale 0 to 100.
[18] abbreviates: Postemergence, 62 g ai/ha, scale 0 to 100.
Where [19] appears, read: Postemergence, 125 g ai/ha, scale 0 to 100.
Setting [20] is: Postemergence, 250 g ai/ha, scale 0 to 100.

From US9302999B2, “Substituted triazoles as herbicides” (E. I. DU PONT DE NEMOURS AND COMPANY, priority 2012, dated 2016) come the findings set out here.

Take `Cc1nn(-c2ccc(F)cc2F)nc1Oc1ccnc(C(F)(F)F)c1` [Compound 146]: the “Plant response rating, Sandbur” value in assay [1] (setting [5]) came to 0; in assay [1] (setting [6]), 0; in assay [1] (setting [7]), 25; in assay [1] (setting [8]) it was 70. Besides, the “Plant response rating, Foxtail, Green” value in assay [2] (setting [9]) is 20; in assay [2] (setting [10]), 20; in assay [2] (62 g ai/ha, scale 0 to 100), 50; in assay [2] (125 g ai/ha, scale 0 to 100), 100; in assay [2] (250 g ai/ha, scale 0 to 100), 100.

On to `COc1nn(-c2cccc(F)c2)nc1Cc1ccnc(C(F)(F)F)c1` [Compound 139], for which the “Plant response rating, Sandbur” value in assay [1] (setting [5]) was found to be 0; in assay [1] (setting [6]) it was 5; in assay [1] (setting [7]), 35; in assay [1] (setting [8]), 40. In addition, the “Plant response rating, Foxtail, Green” value in assay [2] (setting [9]) is 10; in assay [2] (setting [10]), 35; in assay [2] (62 g ai/ha, scale 0 to 100) it was 98; in assay [2] (125 g ai/ha, scale 0 to 100), 100; in assay [2] (250 g ai/ha, scale 0 to 100), 100.

In the case of `Cc1nn(-c2ccc(C(F)(F)F)cn2)nc1Cc1cccc(C(F)(F)F)c1` [Compound 106], the “Plant response rating: Canarygrass” value in assay [3] (setting [11]) is recorded as 5; in assay [3] (setting [12]), 10; in assay [3] (setting [13]) it was 20; in assay [3] (setting [14]) it was 30. The “Plant response rating, Canarygrass” value came to 5 in assay [3] (setting [15]); 0 in assay [3] (setting [6]); 0 in assay [3] (setting [16]); 0 in assay [3] (setting [7]); 0 in assay [3] (setting [8]). The “Plant response rating: Ryegrass, Italian” value in assay [4] (setting [11]) came out at 5; in assay [4] (setting [12]), 5; in assay [4] (setting [13]), 10; in assay [4] (setting [14]), 20. Moreover, the “Plant response rating, Ryegrass, Italian” value in assay [4] (setting [15]) was 5; in assay [4] (setting [6]), 0; in assay [4] (setting [16]), 0; in assay [4] (setting [7]), 0; in assay [4] (setting [8]), 0.

On to `Cc1nn(-c2ccnc(Cl)c2)nc1Cc1ccnc(C(F)(F)F)c1` [Compound 141], for which the “Plant response rating, Sandbur” value in assay [1] (Postemergence, 8 g ai/ha, scale 0 to 100) is reported as 10; in assay [1] (setting [15]), 10; in assay [1] (setting [17]) it was 20; in assay [1] (setting [18]), 30; in assay [1] (setting [19]), 35.

Regarding `Cc1nn(-c2ccc(F)c(C(F)(F)F)c2)nc1Cc1ccnc(C(F)(F)F)c1` [Compound 156], the results for the “Plant response rating: Canarygrass” value in assay [3] (setting [11]), in assay [3] (setting [12]) and in assay [3] (setting [13]) were 30, 65 and 80, respectively. Moreover, the “Plant response rating, Canarygrass” value is listed as 15 in assay [3] (setting [15]); 15 in assay [3] (setting [5]); 70 in assay [3] (setting [6]); 100 in assay [3] (setting [16]); 100 in assay [3] (setting [7]). Also, the “Plant response rating: Ryegrass, Italian” value is listed as 15 in assay [4] (setting [11]), 10 in assay [4] (setting [12]) and 25 in assay [4] (setting [13]). The “Plant response rating, Ryegrass, Italian” value is recorded as 5 in assay [4] (setting [15]); 0 in assay [4] (setting [5]); 5 in assay [4] (setting [6]); 5 in assay [4] (setting [16]); 60 in assay [4] (setting [7]).

Take `CCc1nn(-c2ccc(F)c(F)c2)nc1Oc1ccnc(C(F)(F)F)c1` [Compound 171]: the “Plant response rating, Sandbur” value came out at 0 in assay [1] (setting [5]), 5 in assay [1] (setting [6]), 50 in assay [1] (setting [7]) and 50 in assay [1] (setting [8]). Also, the “Plant response rating, Foxtail, Green” value was 20 in assay [2] (setting [9]); 50 in assay [2] (setting [10]); 95 in assay [2] (62 g ai/ha, scale 0 to 100); 100 in assay [2] (125 g ai/ha, scale 0 to 100); 100 in assay [2] (250 g ai/ha, scale 0 to 100).

On to `COc1nn(-c2ccc(C(F)(F)F)cc2)nc1Cc1ccnc(C(F)F)c1` [Compound 138], for which the “Plant response rating: Canarygrass” value in assay [3] (setting [11]) turned out to be 25; in assay [3] (setting [12]), 30; in assay [3] (setting [13]), 50; in assay [3] (setting [14]), 80. Also, in assay [3] (setting [15]), the “Plant response rating, Canarygrass” value is reported as 10. Moreover, the “Plant response rating: Ryegrass, Italian” value is reported as 25 in assay [4] (setting [11]), 35 in assay [4] (setting [12]), 40 in assay [4] (setting [13]) and 50 in assay [4] (setting [14]). Besides, the “Plant response rating, Ryegrass, Italian” value in assay [4] (setting [15]) was 10.

As to `CCCc1nn(-c2ccc(F)c(F)c2)nc1Oc1ccnc(C(F)(F)F)c1` [Compound 172], the “Plant response rating, Sandbur” value in assay [1] (setting [20]) turned out to be 40; in assay [1] (setting [17]) it was 20; in assay [1] (setting [19]), 30; in assay [1] (setting [6]), 5; in assay [1] (setting [7]), 70; in assay [1] (setting [8]) it was 100. The “Plant response rating, Foxtail, Green” value was determined as 75 in assay [2] (setting [10]); 100 in assay [2] (125 g ai/ha, scale 0 to 100); 100 in assay [2] (250 g ai/ha, scale 0 to 100).

Turning to `CCc1nn(-c2ccc(F)cc2)nc1Cc1ccnc(C(F)(F)F)c1` [Compound 154], the “Plant response rating, Sandbur” value in assay [1] (setting [5]) amounted to 0; in assay [1] (setting [6]) it was 30; in assay [1] (setting [7]), 98; in assay [1] (setting [8]) it was 100. In addition, the “Plant response rating, Foxtail, Green” value in assay [2] (setting [9]) is reported as 40; in assay [2] (setting [10]), 75; in assay [2] (62 g ai/ha, scale 0 to 100), 100; in assay [2] (125 g ai/ha, scale 0 to 100) it was 100; in assay [2] (250 g ai/ha, scale 0 to 100) it was 100.

Regarding `CCc1nn(-c2ccc(C(F)(F)F)cc2)nc1Oc1ccnc(C(F)(F)F)c1` [Compound 169], the “Plant response rating, Sandbur” value is 25 in assay [1] (setting [20]); 15 in assay [1] (setting [15]); 15 in assay [1] (setting [17]); 20 in assay [1] (setting [18]); 20 in assay [1] (setting [19]); 0 in assay [1] (setting [5]). Moreover, the “Plant response rating, Sandbur” value is on record as 20 in assay [1] (setting [6]), 65 in assay [1] (setting [7]) and 75 in assay [1] (setting [8]). Further, the “Plant response rating, Foxtail, Green” value in assay [2] (setting [9]) came out at 98; in assay [2] (setting [10]), 100; in assay [2] (62 g ai/ha, scale 0 to 100), 100; in assay [2] (125 g ai/ha, scale 0 to 100) it was 100; in assay [2] (250 g ai/ha, scale 0 to 100) it was 100.
